Data as given in patent US11534443B2, “Quinazoline compounds, preparation method, use, and pharmaceutical composition thereof” (INSTITUTE OF MATERIA MEDICA, CHINESE ACADEMY OF MEDICAL …, priority 2016, dated 2022).

Key:
[1] = molecular target: PI3Kα (Homo sapiens (Human), UniProt P42336); experiment: Biochemical evaluation of activity of PI3Kα (Kinase-Glo luminescence kinase assay); settings: 25 μM ATP, 50 μM PIP2, 1 h at room temperature
Description: The potency of compounds in the present intention against PI3Kα was assessed by in vitro kinase assay. The kinase activity of PI3Kα was determined by detecting the level of ADP produced in the kinase reaction with luciferase-based luminescence detection.
The Kinase-Glo™ Kinase Assay Kit was purchased from Promega. All assays were performed at room temperature using white OptiPlate™-384 well plate. The PI3Kα kinase was purchased from Invitrogen. The substrate was PIP2 from Invitrogen. The kinase buffer contained 50 mM Hepes (pH 7.5), 3 mM MgCl2, 100 mM NaCl, 1 mM EGTA, 0.03% CHAPS and 2 mM DTT. […] The substrate solution contained 100 μM PIP2 and 50 μM ATP. The test compound was diluted to 10 mM in 100% DMSO and serially diluted three times into ten different concentrations in 100% DMSO. The compound diluted in 100% DMSO was diluted 25-fold in 1×kinase buffer. 2.5 μL of the diluted compound solution and 2.5 μL PI3Kα kinase solution were added to each well of a 384-well plate. The reaction was initiated by addition of 5 μL substrate solution to each well. […] The plate was then covered and the reaction was allowed to proceed for one hour at room temperature, followed by the addition of 10 μL Kinase-Glo™ reagent to each well to stop the reaction.
The percentage of inhibition was calculated as follows: Inhibition %=100−(max−sample RLU)/(max−min)*100
wherein sample RLU was the luminescence reading for a given compound concentration, min was the reading of DMSO control, and max was the reading of the enzyme-free control. The IC50 value was calculated with the XLfit program in Excel.

[2] = tested on: human lung cancer cell NCI-H460; experiment: Tumor cell viability by MTT assay; format: cell-based
Description: After 24 hours, 100 μL of fresh medium containing different concentrations of test compounds and the corresponding solvent control was added into each well to a final concentration of DMSO less than 0.2%. Six to nine concentration groups were set for each test compound, and three parallel wells were set for each group. The plate was incubated at 5% CO2, 37° C. for 96 hours. 20 μL of freshly prepared PBS solution containing 5 mg/mL MTT was added to each well. The supernatant was discarded after incubation for another 4 hours. 150 μL DMSO was added to each well to dissolve the MTT formazan precipitate. After being mixed by a micro-oscillator, the optical density (OD) was measured at the wavelength of 570 nm, and the tumor cells treated with DMSO were used as a control group.

Sequence of PI3Kα (P42336 whole entry): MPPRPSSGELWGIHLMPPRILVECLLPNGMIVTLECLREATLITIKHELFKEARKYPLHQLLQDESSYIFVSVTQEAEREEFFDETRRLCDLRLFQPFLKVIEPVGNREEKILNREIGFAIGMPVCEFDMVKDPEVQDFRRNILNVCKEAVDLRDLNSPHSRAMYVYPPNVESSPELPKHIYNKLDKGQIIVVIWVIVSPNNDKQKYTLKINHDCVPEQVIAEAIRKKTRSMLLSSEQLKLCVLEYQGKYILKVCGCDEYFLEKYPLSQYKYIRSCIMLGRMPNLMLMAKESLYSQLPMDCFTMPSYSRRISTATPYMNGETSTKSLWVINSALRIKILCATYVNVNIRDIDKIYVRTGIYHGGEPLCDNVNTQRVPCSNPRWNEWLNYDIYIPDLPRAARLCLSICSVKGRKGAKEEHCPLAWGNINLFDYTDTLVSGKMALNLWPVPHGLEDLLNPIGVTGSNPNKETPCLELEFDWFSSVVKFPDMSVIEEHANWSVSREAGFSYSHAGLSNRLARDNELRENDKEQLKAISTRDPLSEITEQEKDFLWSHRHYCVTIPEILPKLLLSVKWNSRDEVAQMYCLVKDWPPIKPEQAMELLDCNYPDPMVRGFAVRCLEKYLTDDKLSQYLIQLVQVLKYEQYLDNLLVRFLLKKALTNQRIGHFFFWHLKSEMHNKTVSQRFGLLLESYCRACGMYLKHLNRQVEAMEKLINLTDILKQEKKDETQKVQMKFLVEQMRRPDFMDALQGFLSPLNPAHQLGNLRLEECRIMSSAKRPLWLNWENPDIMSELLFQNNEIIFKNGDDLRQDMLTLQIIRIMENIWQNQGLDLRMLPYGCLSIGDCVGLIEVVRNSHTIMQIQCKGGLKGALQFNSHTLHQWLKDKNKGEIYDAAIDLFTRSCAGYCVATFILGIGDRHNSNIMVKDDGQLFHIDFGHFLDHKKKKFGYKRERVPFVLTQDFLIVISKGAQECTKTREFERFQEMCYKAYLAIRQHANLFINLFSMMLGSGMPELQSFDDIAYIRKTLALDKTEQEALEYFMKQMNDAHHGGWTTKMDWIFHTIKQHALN
Sequence of PI3Kα (P27986 whole entry partner): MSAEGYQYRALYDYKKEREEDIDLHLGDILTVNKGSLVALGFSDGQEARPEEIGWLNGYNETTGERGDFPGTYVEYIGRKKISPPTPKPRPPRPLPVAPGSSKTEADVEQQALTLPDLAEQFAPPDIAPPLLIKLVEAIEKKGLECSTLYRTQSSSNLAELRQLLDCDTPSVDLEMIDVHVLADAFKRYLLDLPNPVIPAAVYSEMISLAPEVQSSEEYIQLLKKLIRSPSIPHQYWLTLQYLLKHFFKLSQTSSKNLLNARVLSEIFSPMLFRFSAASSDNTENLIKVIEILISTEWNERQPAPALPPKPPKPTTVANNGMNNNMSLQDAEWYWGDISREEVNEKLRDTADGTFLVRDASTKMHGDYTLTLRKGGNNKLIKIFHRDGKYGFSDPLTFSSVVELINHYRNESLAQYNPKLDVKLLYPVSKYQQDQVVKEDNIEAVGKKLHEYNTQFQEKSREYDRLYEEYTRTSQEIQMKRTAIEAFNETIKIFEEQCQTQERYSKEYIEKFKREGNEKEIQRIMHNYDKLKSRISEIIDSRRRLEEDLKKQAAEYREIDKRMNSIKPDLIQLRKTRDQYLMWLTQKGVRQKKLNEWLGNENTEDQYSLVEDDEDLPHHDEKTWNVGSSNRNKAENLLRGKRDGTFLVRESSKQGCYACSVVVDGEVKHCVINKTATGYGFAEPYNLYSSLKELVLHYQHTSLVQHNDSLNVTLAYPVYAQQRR

Row | SMILES | IC50 [1] | IC50 ([2]; Homo sapiens, NCI-H460, 96 h) | IC50 ([2]; 96 hours)
1 | COc1ncc(-c2cc(OC3CCOCC3)c3nc(N)nc(C)c3c2)cc1NS(=O)(=O)c1ccc(F)cc1 [Example 3, N-(5-(2-amino-4-methyl-8-((tetrahydro-2H-pyran-4-yl)oxy)quinazolin-6-yl)-2-methoxypyridin-3-yl)-4-fluorobenzenesulfonamide] |  | 96 nM | 
2 | COc1ncc(-c2cc(OC3CCOCC3)c3nc(N)nc(C)c3c2)cc1NS(C)(=O)=O [Example 5, N-(5-(2-amino-4-methyl-8-((tetrahydro-2H-pyran-4-yl)oxy)quinazolin-6-yl)-2-methoxypyridin-3-yl)methanesulfonamide] | 2.7 nM | 860 nM | 
3 | COc1ncc(-c2cc(OC3CCOCC3)c3nc(N)nc(C)c3c2)cc1NS(=O)(=O)C1CC1 [Example 6, N-(5-(2-amino-4-methyl-8-((tetrahydro-2H-pyran-4-yl)oxy)quinazolin-6-yl)-2-methoxypyridin-3-yl)cyclopropanesulfonamide] | 2.3 nM | 930 nM | 
4 | Cc1ncc(-c2cc(OC3CCOCC3)c3nc(N)nc(C)c3c2)cc1NS(=O)(=O)c1ccc(F)cc1F [Example 7, N-(5-(2-amino-4-methyl-8-((tetrahydro-2H-pyran-4-yl)oxy)quinazolin-6-yl)-2-methylpyridin-3-yl)-2,4-difluorobenzenesulfonamide] | 1.1 nM | 2100 nM | 
5 | COc1ncc(-c2cc(O[C@@H]3CCOC3)c3nc(N)nc(C)c3c2)cc1NS(C)(=O)=O [Example 10, (R)—N-(5-(2-amino-4-methyl-8-((tetrahydrofuran-3-yl)oxy)quinazolin-6-yl)-2-methoxypyridin-3-yl)methanesulfonamide] | 3.8 nM | 2200 nM | 
6 | COc1ncc(-c2cc(O[C@H]3CCOC3)c3nc(N)nc(C)c3c2)cc1NS(C)(=O)=O [Example 12, (S)—N-(5-(2-amino-4-methyl-8-((tetrahydrofuran-3-yl)oxy)quinazolin-6-yl)-2-methoxypyridin-3-yl)methanesulfonamide] | 4.5 nM | 2300 nM | 
7 | COc1ncc(-c2cc(OCC3CCOCC3)c3nc(N)nc(C)c3c2)cc1NS(C)(=O)=O [Example 14, N-(5-(2-amino-4-methyl-8-((tetrahydro-2H-pyran-4-yl)methoxy)quinazolin-6-yl)-2-methoxypyridin-3-yl)methanesulfonamide] | 3.3 nM | 2000 nM | 
8 | COc1ncc(-c2cc(OC3CCN(C)CC3)c3nc(N)nc(C)c3c2)cc1NS(=O)(=O)c1ccc(F)cc1F [Example 15, N-(5-(2-amino-4-methyl-8-((1-methylpiperidin-4-yl)oxy)quinazolin-6-yl)-2-methoxypyridin-3-yl)-2,4-difluorobenzenesulfonamide] | 5.5 nM | 660 nM | 
9 | COc1ncc(-c2cc(OCC3CCCO3)c3nc(N)nc(C)c3c2)cc1NS(=O)(=O)c1ccc(F)cc1F (stereo not shown) [Example 20, N-(5-(2-amino-4-methyl-8-((tetrahydrofuran-2-yl)methoxy)quinazolin-6-yl)-2-methoxypyridin-3-yl)-2,4-difluorobenzenesulfonamide] | 1.3 nM |  | 
10 | COc1ncc(-c2cc(OC3CCCC3)c3nc(N)nc(C)c3c2)cc1NS(=O)(=O)c1ccc(F)cc1F [Example 23, N-(5-(2-amino-8-(cyclopentyloxy)-4-methylquinazolin-6-yl)-2-methoxypyridin-3-yl)-2,4-difluorobenzenesulfonamide] | 1.1 nM |  | 
11 | COc1ncc(-c2cc(OC3CCC3)c3nc(N)nc(C)c3c2)cc1NS(=O)(=O)c1ccc(F)cc1F [Example 24, N-(5-(2-amino-8-cyclobutoxy-4-methylquinazolin-6-yl)-2-methoxypyridin-3-yl)-2,4-difluorobenzenesulfonamide] | 0.8 nM |  | 
12 | CNc1nc(C)c2cc(-c3cnc(OC)c(NS(=O)(=O)c4ccc(F)cc4F)c3)cc(O[C@H]3CCOC3)c2n1 [Example 35, (S)—N-(2-methoxy-5-(4-methyl-2-(methylamino)-8-((tetrahydrofuran-3-yl)oxy)quinazolin-6-yl)pyridin-3-yl)-2,4-difluorobenzenesulfonamide] | 1.8 nM |  | 
13 | CNc1nc(C)c2cc(-c3cnc(OC)c(NS(=O)(=O)c4ccc(F)cc4F)c3)cc(OC3CCCC3)c2n1 [Example 40, N-(5-(8-(cyclopentyloxy)-4-methyl-2-(methylamino)quinazolin-6-yl)-2-methoxypyridin-3-yl)-2,4-difluorobenzenesulfonamide] | 8.5 nM |  | 
14 | CNc1nc(C)c2cc(-c3cnc(OC)c(NS(=O)(=O)c4ccc(F)cc4F)c3)cc(OC3CCC3)c2n1 [Example 41, N-(5-(8-cyclobutoxy-4-methyl-2-(methylamino)quinazolin-6-yl)-2-methoxypyridin-3-yl)-2,4-difluorobenzenesulfonamide] | 5 nM |  | 
15 | COc1ncc(-c2cc(OCCN3CCOCC3)c3ncnc(C)c3c2)cc1NS(=O)(=O)c1ccc(F)cc1F [Example 65, N-(2-methoxy-5-(4-methyl-8-(2-morpholinoethoxy)quinazolin-6-yl)pyridin-3-yl)-2,4-difluorobenzenesulfonamide] |  | 630 nM | 

Now from value to molecule:

Row | IC50 [1] | IC50 ([2]; Homo sapiens, NCI-H460, 96 h) | IC50 ([2]; 96 hours) | SMILES
16 | 1.1 nM | 30 nM |  | COc1ncc(-c2cc(O[C@H]3CC[C@H](OC)CC3)c3nc(N)nc(C)c3c2)cc1NS(=O)(=O)c1ccc(F)cc1F (single isomer, unassigned) [Example 18-1, N-(5-(2-amino-8-((4-methoxycyclohexyl)oxy)-4-methylquinazolin-6-yl)-2-methoxypyridin-3-yl)-2,4-difluorobenzenesulfonamide]
17 | 0.8 nM |  | 57 nM | COc1ncc(-c2cc(O[C@H]3CC[C@H](OC)CC3)c3nc(N)nc(C)c3c2)cc1NS(=O)(=O)c1ccc(F)cc1F (single isomer, unassigned) [Example 18-2, N-(5-(2-amino-8-((4-methoxycyclohexyl)oxy)-4-methylquinazolin-6-yl)-2-methoxypyridin-3-yl)-2,4-difluorobenzenesulfonamide]
18 | 0.72 nM | 17 nM |  | COc1ncc(-c2cc(OC3CCOCC3)c3nc(N)nc(C)c3c2)cc1NS(=O)(=O)c1ccc(F)cc1Cl [Example 2, N-(5-(2-amino-4-methyl-8-((tetrahydro-2H-pyran-4-yl)oxy)quinazolin-6-yl)-2-methoxypyridin-3-yl)-2-chloro-4-fluorobenzenesulfonamide]
19 | 0.74 nM |  |  | COc1ncc(-c2cc(OC3CCOCC3)c3nc(N)nc(C)c3c2)cc1NS(=O)(=O)c1ccc(Cl)s1 [Example 4, N-(5-(2-amino-4-methyl-8-((tetrahydro-2H-pyran-4-yl)oxy)quinazolin-6-yl)-2-methoxypyridin-3-yl)-5-chlorothiophene-2-sulfonamide]
20 | 1 nM | 1200 nM |  | Cc1nc(N)nc2c(OC3CCOCC3)cc(-c3cnc(Cl)c(NS(=O)(=O)c4ccc(F)cc4)c3)cc12 [Example 8, N-(5-(2-amino-4-methyl-8-((tetrahydro-2H-pyran-4-yl)oxy)quinazolin-6-yl)-2-chloropyridin-3-yl)-4-fluorobenzenesulfonamide]
21 | 0.94 nM | 94 nM |  | COc1ncc(-c2cc(O[C@H]3CCOC3)c3nc(N)nc(C)c3c2)cc1NS(=O)(=O)c1ccc(F)cc1F [Example 11, (S)—N-(5-(2-amino-4-methyl-8-((tetrahydrofuran-3-yl)oxy)quinazolin-6-yl)-2-methoxypyridin-3-yl)-2,4-difluorobenzenesulfonamide]
22 | 0.84 nM | 21 nM |  | COc1ncc(-c2cc(OCC3CCOCC3)c3nc(N)nc(C)c3c2)cc1NS(=O)(=O)c1ccc(F)cc1F [Example 13, N-(5-(2-amino-4-methyl-8-((tetrahydro-2H-pyran-4-yl)methoxy)quinazolin-6-yl)-2-methoxypyridin-3-yl)-2,4-difluorobenzenesulfonamide]
23 | 1 nM |  |  | COc1ncc(-c2cc(OC3CCOC(C)(C)C3)c3nc(N)nc(C)c3c2)cc1NS(=O)(=O)c1ccc(F)cc1F (stereo not shown) [Example 19, N-(5-(2-amino-8-((2,2-dimethyltetrahydro-2H-pyran-4-yl)oxy)-4-methylquinazolin-6-yl)-2-methoxypyridin-3-yl)-2,4-difluorobenzenesulfonamide]
24 | 1 nM |  |  | COc1ncc(-c2cc(OCC3CCOC3)c3nc(N)nc(C)c3c2)cc1NS(=O)(=O)c1ccc(F)cc1F (stereo not shown) [Example 21, N-(5-(2-amino-4-methyl-8-((tetrahydrofuran-3-yl)methoxy)quinazolin-6-yl)-2-methoxypyridin-3-yl)-2,4-difluorobenzenesulfonamide]
